# According to patent US7582778B2, “Podophyllotoxin” (Universitatsklinikum Charite der Humboldt-Universitat zu, priority 2001, dated 2009):
# Like-named read-outs stand apart in the source and are kept apart here.
# Legend:
# Molt-3 parental cells = assay: Cell cycle analysis (propidium iodide, FACS), Molt-3; format: cell-based, human; details: Molt-3 cells, 0.5 μM, up to 72 h
# Procedure: (§1) Cells were harvested at indicated time points (n=3), fixed, stained with propidium iodide and analyzed by FACS as described in Materials and Methods. Per cent cells in pre G1 (apoptosic cells) were calculated from DNA histograms.
# (§2) Cell cycle analysis: Distinct phases of the cell cycle were determined in a standard assay using propidium iodide. […] At indicated time points, cells were harvested and fixed in 4.5 ml ethanol (75%, −20° C.) for at least 12 h (4° C.). Cells were washed in PBS (pH 7.4) and resuspended in 250 μl PBS containing RNAse (0.3 mg/ml) and propidium iodide (50 μg/ml) and incubated in the dark (30 min, RT). The DNA histograms defining distinct phases of the cell cycle were subsequently determined in duplicates by FACS analysis and average results were expressed as per cent.
# MOVP-3 primary tumors = assay: Anti-tumor effect in a multidrug resistant T-cell leukemia xenograft model; format: in vivo, SCID mice; details: for anti-tumor response / transient average weight loss: 15 mg/kg i.p.
# Procedure: The anti-tumor effect of ProVP-16 II therapy was determined in a multidrug resistant xenograft model (B,C). SCID mice (n=7) were injected s.c. with 5×10^6 MOVP-3 cells and primary tumors of 250 mm^3 average size were established 55 days after inoculation. […] Tumor growth was monitored by microcaliper measurements and tumor size was calculated as described in Materials and Methods (B). […] The body weight of treated animals was determined over time and calculated as per cent of body weight on day 57 (C).
# Anti-tumor effect in a T-cell leukemia xenograft model: Primary tumors were induced by injection of 5×10^6 MOVP 3 cells in 100 μl PBS (pH 7.4) into the skin of the left lateral flank of each SCID mouse. Established primary tumors were palpable 55 days after injection. […] Each mouse received a total of 7 injections on days 55,57,59,69,71,87,90 after tumor cell inoculation. Primary tumor size was determined over time by micro caliper measurements and volumes were calculated according to ½×with^2×length. Body weight was determined on a standard digital scale.
# [1] = for kobs: PBS buffer
# Procedure: ProVP-16 I was incubated in THF/2% HCl and samples were periodically analyzed by HPLC at the indicated time points (A). Hydrolytic activation of ProVP-16 II was determined in phosphate buffered saline (PBS) a t the pH levels indicated (B). ProVP-16 I (3 mM) was incubated in PBS solutions and samples were periodically analyzed by HPLC. The percent conversion was calculated from areas under the curve determined by peak integration.
# Molt-3/MDR-1 cells = details: stable transfection with pMDR-IRESpuro
# Procedure: Stable transfection of MDR-1: The MDR-1 cDNA was kindly provided in a pUC based plasmid by C. Baum, University of Hamburg. For mammalian expression, the MDR-1 cDNA was cloned into the bicistronic eukaryotic expression plasmid pIRESpuro using NotI and BamHI restriction sites. pMDR-IRESpuro was transfected into Molt-3 cells by electroporation (960 μF, 250V). Stable transfectants were selected with 300 ng/ml puromycin.
# OD values were plotted as a function of drug concentration and the curves were integrated using the softmax software to obtain the IC50 concentration values.
# MOVP-3 cells = assay: Cell cycle analysis (propidium iodide, FACS), MOVP-3; format: cell-based, human; details: 0.5 μM, up to 72 h
# Procedure: as §1, §2
# Molt-3 T-cell leukemia = assay: XTT cytotoxicity assay, Molt-3; details: for cytotoxic effects at early incubation: Molt-3, up to 12 h of incubation
# Procedure: (§3) The cytotoxic effect of ProVP-16 I and II was evaluated against a panel of cell lines by triplicate determinations of IC50 concentrations for both prodrugs against each cell line (A). […] Bars represent mean values ±SD.
# At the time points indicated, cell viability was determined in triplicate by the XTT assay as described in Materials and Methods. […] Results were plotted as a semilogarithmic function of drug concentration.
# [2] = for maximum tolerated dose: defined by a decrease in body weight <20%
# Procedure: The body weight was determined for each animal over time and calculated as per cent of total weight observed on day 0. An event as indicated by Kaplan Maier plots is defined by loss of body weight greater than 20%.
# Body weights and survival were monitored over time.
# [3] = system: multidrug resistant MOVP-3 cells; assay: XTT cytotoxicity assay, multidrug resistant MOVP-3 subline; format: cell-based, human; details: for IC50: MOVP-3 cells; for cross resistance of MOVP-3 cells: from IC50 values MOVP-3 vs Molt-3
# Procedure: MDR-1 gene expression was determined by RT-PCR analysis on total RNA isolated from MOVP-3 and Molt-3 cells, respectively (6A). Expression of GAPDH was used as a control for the integrity of the cDNA. […] (6C) Cross-resistance of MOVP-3 cells against MDR-1 drugs (doxorubicin, melphalan, vinblastine and paclitaxel) was calculated from IC50 values (n=3) as described in 6B).
# Cells: Tumor cell lines were grown in RPMI, 10% FCS (Nalm-6, Reh, Molt-3, Jurkat, HL-60, K562, HeLa, CEM, A2780, SW480) or DMEM, 10% FCS (NXS2, SK-N-SH, HT-29) in the presence of 100 IU/ml penicillin/streptomycin (P/S) and propagated under standard tissue culture conditions (5% CO2, 37° C.). All cell lines were obtained from ATCC, Rockville, Md. except NXS2 which was previously described (Lode H N, Xiang R, Varki N M, Dolman C S, Gillies S D, Reisfeld R A. Targeted interleukin-2 therapy for spontaneous neuroblastoma metastases to bone marrow. Journal of the National Cancer Institute. 1997; 89:1586-1594.) and VCR100, ADR5000 and A2780 which were kindly provided by James Beck, Greifswald, Germany (Beck J, Handgretinger R, Dopfer R, Klingebiel T, Niethammer D, Gekeler V. Expression of mdrl, mrp, topoisomerase II alpha/beta, and cyclin A in primary or relapsed states of acute lymphoblastic leukaemias. Br J Haematol. 1995; 89:356-363; Beck J F, Bohnet B, Brugger D, et al. Expression analysis of protein kinase C isozymes and multidrug resistance associated genes in ovarian cancer cells. Anticancer Res. 1998; 18:701-705.).
# [4] = human serum, pH 7.3, 37° C.
# SW480 colon carcinoma = details: SW480, vs VP-16
# Procedure: as §3
# [5] = system: porcine liver carboxyl ester hydrolase
# Water solubility = format: physicochemical; details: compared with ProVP-16 I
# [6] = system: Hamms human colon carcinoma cells; assay: XTT cytotoxicity assay, Hamms; format: cell-based
# Procedure: (§4) Cytotoxicity assay: Cytotoxicity was determined by the XTT tetrazolium/formazan assay as previously described (Scudiero D A, Shoemaker R H, Paull K D, et al. Evaluation of a soluble tetrazolium/formazan assay for cell growth and drug sensitivity in culture using human and other tumor cell lines. Cancer Res. 1988; 48:4827-4833.). Briefly, cells were seeded in 96 flat bottom well plates at a density of 10^4/well in 100 μl media and exposed to drug concentrations ranging from 10^−4 to 10^−12 M. At the indicated time points (6-72 hr), cell viability was assessed by adding 50 μl XTT-reagent (1 mg/ml in serum free RPMI) activated with 0.2% v/v PMS (1.53 mg/ml in PBS) incubated at 37° C. for 4 h. Plates were analyzed in a Thermomax (Molecular Devices) micro plate reader at 450 nm. OD values were plotted as a function of drug concentration and the curves were integrated using the softmax software to obtain the IC50 concentration values.
# [7] = system: NXS2 murine neuroblastoma; assay: XTT cytotoxicity assay, NXS2; format: cell-based
# Procedure: as §3
# [8] = system: CHO Chinese hamster ovary; assay: XTT cytotoxicity assay, CHO; format: cell-based
# Procedure: as §4
# [9] = Conversion of ProVP-16 I to ProVP-16 II under acid conditions (HPLC); format: physicochemical; details: acid conditions (THF, 2N HCL)
# Procedure: ProVP-16 I was incubated in THF/2% HCl and samples were periodically analyzed by HPLC at the indicated time points (A). […] ProVP-16 I (3 mM) was incubated in PBS solutions and samples were periodically analyzed by HPLC. The percent conversion was calculated from areas under the curve determined by peak integration.
# MDR-1 p-glycoprotein = MDR-1 p-glycoprotein (Homo sapiens, UniProt P08183); details: MOVP-3 cells; for effect on the decrease in FL-1 signal (JC-1 efflux): coincubation with 3×10^−4 M
# Procedure: Samples incubated with 2 μM cyclosporin A were used as positive controls (data not shown). Cell fluorescence was recorded using a FAC Sort flow cytometer (Becton Dickinson) and JC-1 signals were detected on the FL1-channel (530 nm filter) for analysis of the dye monomer.
# [10] = Molt-3 cells, resistance experiment (FIG. 4B)
# [11] = porcine liver carboxyl ester hydrolase, pH 7.3, 37° C.
# [12] = Molt-3, time course, 48-72 h after incubation
# Sequence of MDR-1 p-glycoprotein (P08183 whole entry): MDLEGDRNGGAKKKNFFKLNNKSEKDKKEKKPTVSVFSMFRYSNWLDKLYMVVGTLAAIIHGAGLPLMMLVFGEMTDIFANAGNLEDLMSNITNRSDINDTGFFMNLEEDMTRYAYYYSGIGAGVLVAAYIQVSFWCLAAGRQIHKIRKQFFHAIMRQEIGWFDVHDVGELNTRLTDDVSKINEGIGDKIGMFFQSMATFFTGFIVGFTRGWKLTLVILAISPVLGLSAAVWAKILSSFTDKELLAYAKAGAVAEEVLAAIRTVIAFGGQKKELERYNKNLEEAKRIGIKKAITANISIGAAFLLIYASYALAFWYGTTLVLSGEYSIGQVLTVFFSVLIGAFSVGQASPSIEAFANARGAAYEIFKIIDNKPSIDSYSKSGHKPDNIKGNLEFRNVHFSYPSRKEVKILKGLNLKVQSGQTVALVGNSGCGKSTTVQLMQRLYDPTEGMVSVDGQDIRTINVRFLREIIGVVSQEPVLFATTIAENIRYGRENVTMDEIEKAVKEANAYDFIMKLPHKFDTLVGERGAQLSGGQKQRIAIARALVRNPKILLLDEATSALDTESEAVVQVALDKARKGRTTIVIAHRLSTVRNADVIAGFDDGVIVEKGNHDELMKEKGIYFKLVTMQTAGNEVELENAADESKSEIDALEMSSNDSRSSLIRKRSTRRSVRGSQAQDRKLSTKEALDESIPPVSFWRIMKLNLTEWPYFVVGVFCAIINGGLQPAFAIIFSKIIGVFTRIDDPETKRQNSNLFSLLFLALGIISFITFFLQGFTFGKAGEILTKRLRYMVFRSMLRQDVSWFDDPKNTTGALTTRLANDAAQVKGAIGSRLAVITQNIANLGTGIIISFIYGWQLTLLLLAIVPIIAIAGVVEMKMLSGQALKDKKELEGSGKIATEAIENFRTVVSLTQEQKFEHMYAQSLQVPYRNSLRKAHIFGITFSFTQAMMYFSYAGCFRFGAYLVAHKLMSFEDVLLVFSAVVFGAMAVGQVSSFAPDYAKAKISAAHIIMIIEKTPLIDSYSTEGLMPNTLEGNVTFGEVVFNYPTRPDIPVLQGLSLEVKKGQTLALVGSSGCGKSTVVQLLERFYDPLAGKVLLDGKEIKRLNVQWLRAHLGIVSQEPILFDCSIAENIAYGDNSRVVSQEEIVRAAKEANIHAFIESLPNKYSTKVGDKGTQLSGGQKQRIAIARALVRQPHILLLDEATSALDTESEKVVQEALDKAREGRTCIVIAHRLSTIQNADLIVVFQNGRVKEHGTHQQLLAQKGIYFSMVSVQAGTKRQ
structure (smiles),measurement,setting,value
COc1cc(C2c3cc4c(cc3C(OC3OC5COC(C)OC5C(O)C3O)C3COC(=O)C23)OCO4)cc(OC)c1OC(=O)OCC(O)CO (centres unmarked) [ProVP-16 II],induction of apoptosis (pre-G1 peak),Molt-3 parental cells,Induction of apoptosis was also demonstrated
same,anti-tumor response,MOVP-3 primary tumors,dramatic reduction in primary tumor growth
same,transient average weight loss,MOVP-3 primary tumors,no measurable weight loss
same,time the regression was stable,MOVP-3 primary tumors; 45 mg/kg i.p.,over 2 months
same,transient weight loss,MOVP-3 primary tumors; 45 mg/kg i.p.,6%
same,animals with regression of established primary tumors,"MOVP-3 primary tumors; 45 mg/kg i.p., 10 days after initiation of treatment",7/7
same,kobs,"[1]; pH 5.0-7.3, 37° C.",no conversion
same,kobs,"[1]; pH 8.0, 37° C.",3.201 ± 0.428 10^−3-min^−1
same,kobs,"[1]; pH 8.8, 37° C.",7.142 ± 0.351 10^−3-min^−1
same,kobs,"[1]; pH 10.5, 37° C.",100.01 ± 12.72 10^−3-min^−1
same,conversion rate,[1]; pH 7.4,< 5%
same,sensitivity / resistance of Molt-3/MDR-1 cells,Molt-3/MDR-1 cells,remained fully sensitive
same,induction of apoptosis (pre-G1 peak),MOVP-3 cells,very effective in inducing a steady increase in the pre-G1 peak
same,cytotoxic effects at early incubation,Molt-3 T-cell leukemia,absence of cytotoxic effects
same,IC50,Molt-3 T-cell leukemia; [10],20 nM
same,survival / tolerability,[2]; 20 mg/kg i.p.,well tolerated with no death
same,survival / tolerability,[2]; 60 mg/kg i.p.,well tolerated with no death
same,maximum tolerated dose,[2],60 mg/kg
same,"decrease of systemic toxicity by the prodrug design, factor","[2]; mouse, in vivo",≥ 3
same,increase in the maximum tolerated dose over the parental compound,[2]; vs VP-16,greater than 3 fold
same,resistance of MOVP-3 cells (IC50 MOVP-3÷IC50 Molt-3),[3],no significant difference
same,IC50,[3],20 nM
same,t1/2,[4]; listed as ProPV-16 II,56.1 min
same,t1/2,[4]; listed as Prodrug II,56.07 min
same,IC50 fold lower than parent compound,SW480 colon carcinoma,1000 fold
same,kobs,[5]; pH 7.3,1.348 ± 0.081 10^−3-min^−1
same,t1/2,[5]; [11],514.1 min
same,water solubility,Water solubility,higher water solubility
same,response to proetoposides compared with etoposide,[6],responded equally well
same,response to proetoposides compared with etoposide,[7],responded equally well
same,response to proetoposides compared with etoposide,[8],responded equally well
COc1cc(C2c3cc4c(cc3C(OC3OC5COC(C)OC5C(O)C3O)C3COC(=O)C23)OCO4)cc(OC)c1OC(=O)OCC1COC(C)(C)O1 (centres unmarked) [ProVP-16 I],induction of apoptosis (pre-G1 peak),Molt-3 parental cells,Induction of apoptosis was also demonstrated
same,conversion in PBS,"[1]; PBS (pH 7.4, 37° C.)",no measurable conversion
same,kobs,"[1]; pH 5.0-10.0, 37° C.",no conversion
same,kobs,"[1]; pH 11.8, 37° C.",8.333 ± 0.50 10^−3-min^−1
same,stability under basic buffer conditions,[1]; basic buffer conditions (pH <10.0),inert
same,sensitivity / resistance of Molt-3/MDR-1 cells,Molt-3/MDR-1 cells,remained fully sensitive
same,induction of apoptosis (pre-G1 peak),MOVP-3 cells,very effective in inducing a steady increase in the pre-G1 peak
same,IC50,Molt-3 T-cell leukemia; [12],10 nM
same,onset of cytotoxic activity,"Molt-3 T-cell leukemia; Molt-3, time of incubation",> 24 h
same,cytotoxic effects at early incubation,Molt-3 T-cell leukemia,absence of cytotoxic effects
same,IC50,Molt-3 T-cell leukemia; [10],20 nM
same,degradation of the glycoside moiety,[9],about 10%
same,time for conversion to ProVP-16 II,[9],≤ 2 h
same,IC50,[3],20 nM
same,resistance of MOVP-3 cells (IC50 MOVP-3÷IC50 Molt-3),[3]; MOVP-3 vs Molt-3,no significant difference
same,kobs,[4],0.923 ± 0.046 10^−3-min^−1
same,t1/2,[4],750.8 min
same,IC50 fold lower than parent compound,SW480 colon carcinoma,1000 fold
same,kobs,[5]; [11],48.89 ± 3.62 10^−3-min^−1
same,t1/2,[5]; [11],14.2 min
same,t1/2,"[5]; porcine liver carboxyl ester hydrolase, pH 7.3, 37° C., listed as Prodrug I",14.17 min
same,effect on the decrease in FL-1 signal (JC-1 efflux),MDR-1 p-glycoprotein,abrogated
same,lowest concentration inhibiting MDR-1 mediated efflux,MDR-1 p-glycoprotein; data not shown,10 µM
same,response to proetoposides compared with etoposide,[6],responded equally well
same,response to proetoposides compared with etoposide,[7],responded equally well
same,response to proetoposides compared with etoposide,[8],responded equally well
"COc1cc([C@@H]2c3cc4c(cc3[C@@H](O[C@@H]3O[C@@H]5CO[C@@H](C)O[C@H]5[C@H](O)[C@H]3O)[C@H]3COC(=O)[C@H]23)OCO4)cc(OC)c1O [VP-16, etoposide, reference compound]",induction of apoptosis (pre-G1 peak),Molt-3 parental cells,induce apoptosis in Molt-3 cells to a similar extent as ProVP-16 I and II
same,anti-tumor response,MOVP-3 primary tumors,no anti-tumor response
same,transient average weight loss,MOVP-3 primary tumors,20%
same,sensitivity / resistance of Molt-3/MDR-1 cells,Molt-3/MDR-1 cells,resistance
same,induction of apoptosis (pre-G1 peak),MOVP-3 cells,ineffective to induce apoptosis
same,IC50,Molt-3 T-cell leukemia; [12],65 nM
same,IC50,Molt-3 T-cell leukemia; [10],20 nM
same,maximum tolerated dose,[2],20 mg/kg
same,mice with a weight loss >20%,"[2]; mouse, in vivo",5/6
same,IC50,[3],2000 nM
same,resistance in vitro,[3]; MOVP-3 model with stably amplified MDR-1,100 ×
same,cross resistance of MOVP-3 cells,[3],cross resistance
same,effect on the decrease in FL-1 signal (JC-1 efflux),MDR-1 p-glycoprotein,ineffective in modulating MDR-1 function
COc1cccc2c1C(=O)c1c(O)c3c(c(O)c1C2=O)C[C@@](O)(C(=O)CO)C[C@@H]3O[C@H]1C[C@H](N)[C@H](O)[C@H](C)O1 [doxorubicin],sensitivity / resistance of Molt-3/MDR-1 cells,Molt-3/MDR-1 cells,resistance
same,cross resistance of MOVP-3 cells,[3],cross resistance
N[C@@H](Cc1ccc(N(CCCl)CCCl)cc1)C(=O)O [melphalan],cross resistance of MOVP-3 cells,[3],statistically significant
CC(=O)O[C@H]1C(=O)[C@@]2(C)[C@H]([C@H](OC(=O)c3ccccc3)[C@]3(O)C[C@H](OC(=O)[C@H](O)[C@@H](NC(=O)c4ccccc4)c4ccccc4)C(C)=C1C3(C)C)[C@]1(OC(C)=O)CO[C@@H]1C[C@@H]2O [paclitaxel],sensitivity / resistance of Molt-3/MDR-1 cells,Molt-3/MDR-1 cells,resistance
same,cross resistance of MOVP-3 cells,[3],cross resistance
CC[C@]1(O)C[C@@H]2CN(CCc3c([nH]c4ccccc34)[C@@](C(=O)OC)(c3cc4c(cc3OC)N(C)[C@H]3[C@@](O)(C(=O)OC)[C@H](OC(C)=O)[C@]5(CC)C=CCN6CC[C@]43[C@@H]65)C2)C1 [vinblastine],sensitivity / resistance of Molt-3/MDR-1 cells,Molt-3/MDR-1 cells,resistance
same,cross resistance of MOVP-3 cells,[3],cross resistance
